ChEMBL document CHEMBL1144565, “Anti-breast cancer activity of LFM-A13, a potent inhibitor of Polo-like kinase (PLK)” (Bioorg Med Chem, 2007)
Calls of active or inactive are those of the source. The rule behind the calls is not given here.

Columns and labels:
[1] = biological target: Cyclin-dependent kinase 3 (Homo sapiens, UniProt Q00526); experiment: Inhibition of CDK3
Mus musculus [2] = experiment: Acute toxicity in CD1 mouse assessed as WBC counts at 10 mg/kg, ip after 7 days; assay type: organism-based; parameters: dose 10 mg/kg, route intraperitoneal; conditions: in vivo, 168 h
[3] = biological target: Cyclin-dependent kinase 2 (Homo sapiens, UniProt P24941); experiment: Inhibition of CDK2
Mus musculus [4] = experiment: Toxicity in po dosed BALB/c mouse; assay type: organism-based; conditions: in vivo
[5] = biological target: Tyrosine-protein kinase ABL1 (Homo sapiens, UniProt P00519); experiment: Inhibition of ABL kinase
Danio rerio = species on record: Danio rerio; experiment: Effect on cell division blockade in zebrafish two-cell stage embryo assessed as proliferation arrest at 16-cell stage at 500 uM after 30 to 35 mins; assay type: functional, organism-based
Mus musculus [6] = experiment: Subacute toxicity in CD1 mouse assessed as myeloid or lymphoid hyperplasia in bone marrow at 10 mg/kg, ip after 30 days; assay type: organism-based; parameters: dose 10 mg/kg, route intraperitoneal; conditions: in vivo, 720 h
Mus musculus [7] = experiment: Anti-breast cancer activity in ip dosed MMTV/Neu transgenic mouse assessed as tumor progression delay; assay type: functional, organism-based
Mus musculus [8] = experiment: Acute toxicity in CD1 mouse assessed as WBC counts at 80 mg/kg, ip after 7 days; assay type: organism-based; parameters: dose 80 mg/kg, route intraperitoneal; conditions: in vivo, 168 h
BT-20 = experiment: Induction of aberrant monopolar and multipolar spindle formation in human BT20 cells assessed as at 100 uM; assay type: functional, cell-based
Rattus norvegicus [9] = experiment: Toxicity in Lewis rat assessed as WBC counts at 20 mg/kg, iv after 7 days; assay type: organism-based; parameters: dose 20 mg/kg, route intravenous; conditions: in vivo, 168 h
Mus musculus [10] = experiment: Toxicity in ip dosed CD1 mouse; assay type: organism-based; conditions: in vivo
[11] = biological target: Cytoplasmic tyrosine-protein kinase BMX (Homo sapiens, UniProt P51813); experiment: Inhibition of BMX kinase
Mus musculus [12] = experiment: Effect on non-proliferating tissue in ip dosed CD1 mouse assessed as toxic lesions in kidney; assay type: ADME, organism-based; conditions: in vivo
[13] = biological target: Insulin-like growth factor 1 receptor (Homo sapiens, UniProt P08069); experiment: Inhibition of IGF1R
Rattus norvegicus [14] = experiment: Effect on non-proliferating tissue in iv dosed Lewis rat assessed as toxic lesions in kidney on day 7; assay type: ADME, organism-based; conditions: in vivo
Rattus norvegicus [15] = experiment: Toxicity in Lewis rat assessed as WBC counts at 80 mg/kg, iv after 7 days; assay type: organism-based; parameters: dose 80 mg/kg, route intravenous; conditions: in vivo, 168 h
Mus musculus [16] = experiment: Effect on non-proliferating tissue in ip dosed CD1 mouse assessed as toxic lesions in brain; assay type: ADME, organism-based; conditions: in vivo
PTK1 [17] = experiment: Antiproliferative activity against anaphase PTK1 cells assessed as delay in mitosis completion; assay type: functional, cell-based; conditions: Potorous tridactylus
Mus musculus [18] = experiment: Effect on non-proliferating tissue in po dosed BALB/c mouse assessed as toxic lesions in brain; assay type: ADME, organism-based; conditions: in vivo
Mus musculus [19] = experiment: Acute toxicity in CD1 mouse assessed as myeloid or lymphoid hyperplasia in bone marrow at 20 mg/kg, ip after 7 days; assay type: organism-based; parameters: dose 20 mg/kg, route intraperitoneal; conditions: in vivo, 168 h
Rattus norvegicus [20] = experiment: Toxicity in Lewis rat assessed as absolute lymphocyte counts at 40 mg/kg, iv after 7 days; assay type: organism-based; parameters: dose 40 mg/kg, route intravenous; conditions: in vivo, 168 h
Mus musculus [21] = experiment: Subacute toxicity in CD1 mouse assessed as WBC counts at 20 mg/kg, ip after 30 days; assay type: organism-based; parameters: dose 20 mg/kg, route intraperitoneal; conditions: in vivo, 720 h
Mus musculus [22] = experiment: Acute toxicity in CD1 mouse assessed as WBC counts at 20 mg/kg, ip after 7 days; assay type: organism-based; parameters: dose 20 mg/kg, route intraperitoneal; conditions: in vivo, 168 h
Rattus norvegicus [23] = experiment: Toxicity in Lewis rat assessed as absolute neutrophil counts at 20 mg/kg, iv after 7 days; assay type: organism-based; parameters: dose 20 mg/kg, route intravenous; conditions: in vivo, 168 h
Rattus norvegicus [24] = experiment: Toxicity in Lewis rat assessed as myeloid or lymphoid hyperplasia in bone marrow at 40 mg/kg, iV after 7 days; assay type: organism-based; parameters: dose 40 mg/kg, route intravenous; conditions: in vivo, 168 h
Mus musculus [25] = experiment: Subacute toxicity in CD1 mouse assessed as absolute neutrophil counts at 40 mg/kg, ip after 30 days; assay type: organism-based; parameters: dose 40 mg/kg, route intraperitoneal; conditions: in vivo, 720 h
Mus musculus [26] = experiment: Subacute toxicity in CD1 mouse assessed as myeloid or lymphoid hyperplasia in bone marrow at 20 mg/kg, ip after 30 days; assay type: organism-based; parameters: dose 20 mg/kg, route intraperitoneal; conditions: in vivo, 720 h
Rattus norvegicus [27] = experiment: Toxicity in Lewis rat assessed as myeloid or lymphoid hyperplasia in bone marrow at 20 mg/kg, iV after 7 days; assay type: organism-based; parameters: dose 20 mg/kg, route intravenous; conditions: in vivo, 168 h
Rattus norvegicus [28] = experiment: Toxicity in Lewis rat assessed as absolute neutrophil counts at 80 mg/kg, iv after 7 days; assay type: organism-based; parameters: dose 80 mg/kg, route intravenous; conditions: in vivo, 168 h
Mus musculus [29] = experiment: Acute toxicity in CD1 mouse assessed as absolute neutrophil counts at 40 mg/kg, ip after 7 days; assay type: organism-based; parameters: dose 40 mg/kg, route intraperitoneal; conditions: in vivo, 168 h
Mus musculus [30] = experiment: Subacute toxicity in CD1 mouse assessed as absolute lymphocyte counts at 40 mg/kg, ip after 30 days; assay type: organism-based; parameters: dose 40 mg/kg, route intraperitoneal; conditions: in vivo, 720 h
Mus musculus [31] = experiment: Subacute toxicity in CD1 mouse assessed as absolute lymphocyte counts at 80 mg/kg, ip after 30 days; assay type: organism-based; parameters: dose 80 mg/kg, route intraperitoneal; conditions: in vivo, 720 h
Rattus norvegicus [32] = experiment: Toxicity in Lewis rat assessed as WBC counts at 40 mg/kg, iv after 7 days; assay type: organism-based; parameters: dose 40 mg/kg, route intravenous; conditions: in vivo, 168 h
Mus musculus [33] = experiment: Subacute toxicity in CD1 mouse assessed as WBC counts at 40 mg/kg, ip after 30 days; assay type: organism-based; parameters: dose 40 mg/kg, route intraperitoneal; conditions: in vivo, 720 h
Mus musculus [34] = experiment: Subacute toxicity in CD1 mouse assessed as myeloid or lymphoid hyperplasia in bone marrow at 40 mg/kg, ip after 30 days; assay type: organism-based; parameters: dose 40 mg/kg, route intraperitoneal; conditions: in vivo, 720 h
PTK1 [35] = experiment: Antiproliferative activity against prometaphase PTK1 cells assessed as complete arrest at 1 mM within 50 mins; assay type: functional, cell-based; conditions: Potorous tridactylus
Rattus norvegicus [36] = experiment: Toxicity in Lewis rat assessed as absolute lymphocyte counts at 20 mg/kg, iv after 7 days; assay type: organism-based; parameters: dose 20 mg/kg, route intravenous; conditions: in vivo, 168 h
Mus musculus [37] = experiment: Effect on non-proliferating tissue in ip dosed CD1 mouse assessed as toxic lesions in pancreas; assay type: ADME, organism-based; conditions: in vivo
[38] = biological target: Protein-tyrosine kinase 6 (Homo sapiens, UniProt Q13882); experiment: Inhibition of BRK
Mus musculus [39] = experiment: Subacute toxicity in CD1 mouse assessed as absolute neutrophil counts at 10 mg/kg, ip after 30 days; assay type: organism-based; parameters: dose 10 mg/kg, route intraperitoneal; conditions: in vivo, 720 h
Rattus norvegicus [40] = experiment: Toxicity in Lewis rat assessed as absolute neutrophil counts at 40 mg/kg, iv after 7 days; assay type: organism-based; parameters: dose 40 mg/kg, route intravenous; conditions: in vivo, 168 h
Rattus norvegicus [41] = experiment: Effect on non-proliferating tissue in iv dosed Lewis rat assessed as toxic lesions in lung on day 7; assay type: ADME, organism-based; conditions: in vivo
[42] = biological target: Serine/threonine-protein kinase PLK1 (Xenopus laevis, UniProt P70032); experiment: Inhibition of Xenopus recombinant Plx1 expressed in Sf21 cells by GST-Cdc25 substrate phosphorylation assay; assay type: functional
Mus musculus [43] = experiment: Acute toxicity in CD1 mouse assessed as absolute lymphocyte counts at 40 mg/kg, ip after 7 days; assay type: organism-based; parameters: dose 40 mg/kg, route intraperitoneal; conditions: in vivo, 168 h
Mus musculus [44] = experiment: Effect on non-proliferating tissue in ip dosed CD1 mouse assessed as toxic lesions in lung; assay type: ADME, organism-based; conditions: in vivo
Rattus norvegicus [45] = experiment: Toxicity in iv dosed Lewis rat; assay type: organism-based; conditions: in vivo
Rattus norvegicus [46] = experiment: Effect on non-proliferating tissue in iv dosed Lewis rat assessed as toxic lesions in myocardium on day 7; assay type: ADME, organism-based; conditions: in vivo

Chain of Protein-tyrosine kinase 6 (Q13882 whole entry): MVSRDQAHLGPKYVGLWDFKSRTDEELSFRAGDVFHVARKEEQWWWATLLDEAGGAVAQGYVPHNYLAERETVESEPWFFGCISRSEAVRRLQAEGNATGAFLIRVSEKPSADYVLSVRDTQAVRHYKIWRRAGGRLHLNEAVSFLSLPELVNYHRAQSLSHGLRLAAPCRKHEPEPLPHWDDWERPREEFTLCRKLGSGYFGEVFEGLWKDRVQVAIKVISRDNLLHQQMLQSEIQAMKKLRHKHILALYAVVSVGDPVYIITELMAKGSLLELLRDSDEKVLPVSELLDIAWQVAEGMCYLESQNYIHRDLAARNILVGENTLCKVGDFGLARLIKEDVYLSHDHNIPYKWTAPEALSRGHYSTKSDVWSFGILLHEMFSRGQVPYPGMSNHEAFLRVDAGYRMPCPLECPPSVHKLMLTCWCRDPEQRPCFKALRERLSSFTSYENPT
Chain of Tyrosine-protein kinase ABL1 (P00519 whole entry): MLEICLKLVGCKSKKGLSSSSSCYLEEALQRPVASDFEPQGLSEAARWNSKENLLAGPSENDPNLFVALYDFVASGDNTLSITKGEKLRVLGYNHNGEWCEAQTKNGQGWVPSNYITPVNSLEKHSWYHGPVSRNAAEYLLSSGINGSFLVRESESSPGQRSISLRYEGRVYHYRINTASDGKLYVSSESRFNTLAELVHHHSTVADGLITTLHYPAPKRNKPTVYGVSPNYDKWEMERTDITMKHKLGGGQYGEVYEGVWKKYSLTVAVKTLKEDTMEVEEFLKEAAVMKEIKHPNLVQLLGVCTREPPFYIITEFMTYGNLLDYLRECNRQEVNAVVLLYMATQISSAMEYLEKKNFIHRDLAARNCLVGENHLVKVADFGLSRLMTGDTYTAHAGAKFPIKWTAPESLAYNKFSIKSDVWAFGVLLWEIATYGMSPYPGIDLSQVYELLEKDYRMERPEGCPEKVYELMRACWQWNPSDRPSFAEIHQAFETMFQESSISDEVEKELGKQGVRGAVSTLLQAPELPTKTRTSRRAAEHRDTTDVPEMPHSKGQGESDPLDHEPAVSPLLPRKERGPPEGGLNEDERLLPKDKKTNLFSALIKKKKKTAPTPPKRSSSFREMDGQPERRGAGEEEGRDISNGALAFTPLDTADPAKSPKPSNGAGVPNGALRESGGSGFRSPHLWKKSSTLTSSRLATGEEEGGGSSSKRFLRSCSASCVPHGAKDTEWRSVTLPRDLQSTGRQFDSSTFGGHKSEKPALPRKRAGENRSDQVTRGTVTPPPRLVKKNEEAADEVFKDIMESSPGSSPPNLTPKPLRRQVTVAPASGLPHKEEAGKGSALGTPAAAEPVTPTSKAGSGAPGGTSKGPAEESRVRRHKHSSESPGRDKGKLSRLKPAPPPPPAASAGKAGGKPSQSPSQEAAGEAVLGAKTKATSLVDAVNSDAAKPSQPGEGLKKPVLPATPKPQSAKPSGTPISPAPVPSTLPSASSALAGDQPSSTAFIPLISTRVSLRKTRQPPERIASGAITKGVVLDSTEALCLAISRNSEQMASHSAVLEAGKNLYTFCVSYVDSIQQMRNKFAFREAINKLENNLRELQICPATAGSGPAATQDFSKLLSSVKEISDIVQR
Chain of Cytoplasmic tyrosine-protein kinase BMX (P51813 whole entry): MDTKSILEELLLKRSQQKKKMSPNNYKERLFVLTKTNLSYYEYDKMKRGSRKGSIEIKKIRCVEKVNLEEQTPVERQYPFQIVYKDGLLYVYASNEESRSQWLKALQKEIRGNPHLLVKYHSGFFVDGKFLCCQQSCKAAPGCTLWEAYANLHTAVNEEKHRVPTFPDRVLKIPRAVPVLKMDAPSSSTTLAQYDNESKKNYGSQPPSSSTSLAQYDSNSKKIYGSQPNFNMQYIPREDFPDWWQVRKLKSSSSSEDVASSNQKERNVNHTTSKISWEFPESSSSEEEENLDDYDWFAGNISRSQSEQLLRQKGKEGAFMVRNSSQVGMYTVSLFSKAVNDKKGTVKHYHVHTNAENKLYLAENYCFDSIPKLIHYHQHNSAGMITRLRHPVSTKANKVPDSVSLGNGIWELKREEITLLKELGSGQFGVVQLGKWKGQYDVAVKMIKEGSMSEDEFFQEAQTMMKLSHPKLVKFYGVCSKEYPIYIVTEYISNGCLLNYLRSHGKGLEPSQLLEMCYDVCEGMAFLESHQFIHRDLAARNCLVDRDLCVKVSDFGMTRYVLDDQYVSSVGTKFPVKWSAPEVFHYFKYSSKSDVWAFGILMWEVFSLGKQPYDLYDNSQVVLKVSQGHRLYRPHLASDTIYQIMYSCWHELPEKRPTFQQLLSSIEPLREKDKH
Chain of Insulin-like growth factor 1 receptor (P08069 31-736 limits assumed): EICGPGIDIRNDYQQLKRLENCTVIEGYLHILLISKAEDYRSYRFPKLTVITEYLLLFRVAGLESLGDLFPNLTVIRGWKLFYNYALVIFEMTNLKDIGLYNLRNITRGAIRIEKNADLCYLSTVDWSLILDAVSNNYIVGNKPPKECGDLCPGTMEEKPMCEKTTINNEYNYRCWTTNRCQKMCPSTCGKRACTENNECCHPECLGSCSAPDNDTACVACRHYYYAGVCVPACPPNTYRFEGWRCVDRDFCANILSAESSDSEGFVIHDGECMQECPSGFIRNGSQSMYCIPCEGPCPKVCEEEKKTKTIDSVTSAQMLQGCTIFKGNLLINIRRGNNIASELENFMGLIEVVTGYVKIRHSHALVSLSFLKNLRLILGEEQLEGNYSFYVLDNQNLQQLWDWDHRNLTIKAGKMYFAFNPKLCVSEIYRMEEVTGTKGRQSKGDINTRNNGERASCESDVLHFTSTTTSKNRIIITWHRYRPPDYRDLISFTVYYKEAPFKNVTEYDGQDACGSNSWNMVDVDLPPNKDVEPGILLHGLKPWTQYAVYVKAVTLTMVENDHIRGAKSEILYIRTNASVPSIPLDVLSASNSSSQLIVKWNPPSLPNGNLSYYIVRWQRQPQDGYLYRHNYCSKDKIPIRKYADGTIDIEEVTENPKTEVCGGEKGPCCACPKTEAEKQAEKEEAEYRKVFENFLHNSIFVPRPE
Chain of Insulin-like growth factor 1 receptor (P08069 741-1367 limits assumed): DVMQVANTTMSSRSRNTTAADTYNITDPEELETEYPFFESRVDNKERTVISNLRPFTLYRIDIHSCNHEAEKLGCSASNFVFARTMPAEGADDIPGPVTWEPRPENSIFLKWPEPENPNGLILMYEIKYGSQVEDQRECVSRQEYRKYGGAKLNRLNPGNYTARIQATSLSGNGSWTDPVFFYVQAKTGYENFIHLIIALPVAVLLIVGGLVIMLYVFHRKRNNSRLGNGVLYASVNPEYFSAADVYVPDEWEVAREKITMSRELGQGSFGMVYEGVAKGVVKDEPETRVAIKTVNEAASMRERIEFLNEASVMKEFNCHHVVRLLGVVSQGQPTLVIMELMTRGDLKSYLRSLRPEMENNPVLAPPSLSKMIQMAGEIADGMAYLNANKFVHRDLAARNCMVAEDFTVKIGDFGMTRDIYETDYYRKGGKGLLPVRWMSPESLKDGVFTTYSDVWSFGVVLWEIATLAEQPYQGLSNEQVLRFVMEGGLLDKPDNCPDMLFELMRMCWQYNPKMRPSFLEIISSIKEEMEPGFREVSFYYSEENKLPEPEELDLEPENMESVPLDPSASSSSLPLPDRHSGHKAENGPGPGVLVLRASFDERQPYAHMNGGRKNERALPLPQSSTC
Chain of Cyclin-dependent kinase 3 (Q00526 whole entry): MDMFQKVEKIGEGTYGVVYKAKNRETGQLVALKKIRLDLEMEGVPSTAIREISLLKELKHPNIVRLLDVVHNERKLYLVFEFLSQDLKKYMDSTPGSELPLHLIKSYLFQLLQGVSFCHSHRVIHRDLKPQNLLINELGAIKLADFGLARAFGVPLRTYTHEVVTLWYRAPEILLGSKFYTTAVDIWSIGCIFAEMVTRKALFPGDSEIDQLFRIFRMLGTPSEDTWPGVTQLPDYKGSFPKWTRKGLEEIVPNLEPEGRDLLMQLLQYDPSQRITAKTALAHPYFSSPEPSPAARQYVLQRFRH
Chain of Serine/threonine-protein kinase PLK1 (P70032 whole entry): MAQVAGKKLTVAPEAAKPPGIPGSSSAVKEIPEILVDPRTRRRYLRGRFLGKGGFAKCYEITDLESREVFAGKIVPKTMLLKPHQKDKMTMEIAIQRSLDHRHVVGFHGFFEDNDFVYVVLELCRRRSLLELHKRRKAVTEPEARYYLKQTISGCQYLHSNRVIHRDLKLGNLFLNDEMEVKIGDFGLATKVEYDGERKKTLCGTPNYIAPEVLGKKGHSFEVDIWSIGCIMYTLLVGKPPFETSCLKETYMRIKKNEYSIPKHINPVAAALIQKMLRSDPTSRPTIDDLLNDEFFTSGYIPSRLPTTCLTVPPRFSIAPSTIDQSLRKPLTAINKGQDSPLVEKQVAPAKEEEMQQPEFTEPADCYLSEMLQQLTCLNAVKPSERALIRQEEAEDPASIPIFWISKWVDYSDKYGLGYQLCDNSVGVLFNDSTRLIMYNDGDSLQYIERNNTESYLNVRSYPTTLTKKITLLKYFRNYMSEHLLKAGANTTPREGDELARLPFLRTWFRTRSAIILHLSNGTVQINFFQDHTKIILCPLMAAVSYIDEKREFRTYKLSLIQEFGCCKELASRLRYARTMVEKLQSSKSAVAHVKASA

## C/C(O)=C(\C#N)C(=O)Nc1cc(Br)ccc1Br
[1]
  IC50: > 500 µM
Mus musculus [2]
  Activity: 7 10^9/L
[3]
  IC50: > 500 µM
Mus musculus [4]
  LD10: > 100 mg/kg
[5]
  IC50: > 500 µM
Danio rerio
  Activity: Active
Mus musculus [6]
  Activity: Non-toxic
Mus musculus [7]
  Activity: Dose-dependent effect
Mus musculus [8]
  Activity: 6.6 10^9/L
BT-20
  Activity: Active
Rattus norvegicus [9]
  Activity: 11.7 10^9/L
Mus musculus [10]
  LD10: > 80 mg/kg
[11]
  IC50: 281 µM
Mus musculus [12]
  Activity: Non-toxic
[13]
  IC50: > 500 µM
Rattus norvegicus [14]
  Activity: Non-toxic
Rattus norvegicus [15]
  Activity: 11.7 10^9/L
Mus musculus [16]
  Activity: Non-toxic
PTK1 [17]
  Activity: Active
Mus musculus [18]
  Activity: Non-toxic
Mus musculus [19]
  Activity: Non-toxic
Rattus norvegicus [20]
  Activity: 10.6 10^9/L
Mus musculus [21]
  Activity: 6.2 10^9/L
Mus musculus [22]
  Activity: 7.6 10^9/L
Rattus norvegicus [23]
  Activity: 1.6 10^9/L
Rattus norvegicus [24]
  Activity: Non-toxic
Mus musculus [25]
  Activity: 1 10^9/L
Mus musculus [26]
  Activity: Non-toxic
Rattus norvegicus [27]
  Activity: Non-toxic
Rattus norvegicus [28]
  Activity: 1.8 10^9/L
Mus musculus [29]
  Activity: 1.6 10^9/L
Mus musculus [30]
  Activity: 5.1 10^9/L
Mus musculus [31]
  Activity: 4.3 10^9/L
Rattus norvegicus [32]
  Activity: 12.9 10^9/L
Mus musculus [33]
  Activity: 6.4 10^9/L
Mus musculus [34]
  Activity: Non-toxic
PTK1 [35]
  Activity: Active
Rattus norvegicus [36]
  Activity: 9.8 10^9/L
Mus musculus [37]
  Activity: Non-toxic
[38]
  IC50: 267 µM
Mus musculus [39]
  Activity: 1.4 10^9/L
Rattus norvegicus [40]
  Activity: 2.1 10^9/L
Rattus norvegicus [41]
  Activity: Non-toxic
[42]
  IC50: 32.5 µM
Mus musculus [43]
  Activity: 5.2 10^9/L
Mus musculus [44]
  Activity: Non-toxic
Rattus norvegicus [45]
  LD10: > 80 mg/kg
Rattus norvegicus [46]
  Activity: Non-toxic
